Read-outs that look alike come from different tables or passages of the source. One block for each compound: values may come before it.
Molecular target: T1, human TRPV4 (hTRPV4/CHO cells) (Homo sapiens, UniProt Q9HBA0)
T1 construct: expressed in transfected cells; host or cells: CHO-K1
Assay: Test Example 1: TRPV4 inhibitory activity (IC50 value), 4α-PDD stimulation, Fluo4 calcium fluorescence (FLIPR TETRA)
Type: cell-based

[1] = Test Example 1, 4α-PDD stimulation, read-out: Test 1 IC50

T1 sequence (Q9HBA0 whole entry): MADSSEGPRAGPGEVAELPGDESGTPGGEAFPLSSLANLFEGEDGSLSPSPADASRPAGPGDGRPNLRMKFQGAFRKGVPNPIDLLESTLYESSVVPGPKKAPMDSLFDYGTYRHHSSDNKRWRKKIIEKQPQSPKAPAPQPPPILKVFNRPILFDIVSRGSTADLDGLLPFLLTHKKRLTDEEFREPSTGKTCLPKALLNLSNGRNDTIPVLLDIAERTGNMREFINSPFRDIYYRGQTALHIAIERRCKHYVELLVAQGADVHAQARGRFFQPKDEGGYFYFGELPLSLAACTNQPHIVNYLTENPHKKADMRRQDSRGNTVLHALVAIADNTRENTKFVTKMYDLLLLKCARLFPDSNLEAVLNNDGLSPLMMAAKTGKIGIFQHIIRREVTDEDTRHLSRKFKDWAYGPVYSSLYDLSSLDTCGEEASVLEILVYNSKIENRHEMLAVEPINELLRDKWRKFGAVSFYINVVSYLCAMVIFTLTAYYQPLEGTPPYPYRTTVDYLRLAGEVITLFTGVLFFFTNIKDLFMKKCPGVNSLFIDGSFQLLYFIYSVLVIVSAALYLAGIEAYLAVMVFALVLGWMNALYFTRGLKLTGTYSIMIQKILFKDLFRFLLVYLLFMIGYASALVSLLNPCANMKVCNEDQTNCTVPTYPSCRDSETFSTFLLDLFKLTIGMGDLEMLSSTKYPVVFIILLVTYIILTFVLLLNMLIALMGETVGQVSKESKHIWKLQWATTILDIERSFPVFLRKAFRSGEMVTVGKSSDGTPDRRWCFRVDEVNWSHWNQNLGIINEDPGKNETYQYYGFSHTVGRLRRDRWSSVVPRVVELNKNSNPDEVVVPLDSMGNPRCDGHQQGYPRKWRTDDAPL

Structure (SMILES): Cc1nc(CO)sc1-c1csc(NC(=O)C2CC(=O)C2)n1 [Compound I-267]
IC50 [1]: 1000 to 8000 nM

Structure (SMILES): CO[C@H]1C[C@H](C(=O)Nc2nc(-c3sc(C)nc3C)cs2)C1 [Compound I-268]
IC50 [1]: 100 to 1000 nM

Structure (SMILES): CO[C@H]1C[C@@H](C(=O)Nc2nc(-c3sc(C)nc3C)cs2)C1 [Compound I-269]
IC50 [1]: 1000 to 8000 nM

Structure (SMILES): CCOC(=O)c1nc(C)c(-c2csc(NC(=O)C3Oc4cc(Cl)c(Cl)cc4O3)n2)s1 [Compound I-270]
IC50 [1]: 100 to 1000 nM

Structure (SMILES): Cc1nc(C)c(-c2csc(NC(=O)[C@@H]3C[C@@H](N4CCC(c5ccccc5)CC4)CN3)n2)s1 [Compound I-274]
IC50 [1]: 1000 to 8000 nM

Structure (SMILES): Cc1nc(C)c(-c2csc(NC(=O)[C@@H]3C[C@@H](N4CCCCC4)CN3C(=O)OC(C)(C)C)n2)s1 [Compound I-275]
IC50 [1]: 1000 to 8000 nM

Structure (SMILES): CCOC(=O)C(C)(C)N1CC(C(=O)Nc2nc(-c3sc(C)nc3C)cs2)C1 [Compound I-279]
IC50 [1]: 1000 to 8000 nM

Structure (SMILES): Cc1nc(C)c(-c2csc(NC(=O)C3CN(CC(F)(F)F)C3)n2)s1 [Compound I-281]
IC50 [1]: 100 to 1000 nM

Structure (SMILES): Cc1nc(C)c(-c2csc(NC(=O)C3CN(Cc4ccc(C(F)(F)F)nc4)C3)n2)s1 [Compound I-282]
IC50 [1]: 100 to 1000 nM

Structure (SMILES): COc1ccc(CN2CC(C(=O)Nc3nc(-c4sc(C)nc4C)cs3)C2)cn1 [Compound I-283]
IC50 [1]: 1000 to 8000 nM

Structure (SMILES): Cc1nc(C)c(-c2csc(NC(=O)C3CN(c4ccc(C(F)(F)F)nn4)C3)n2)s1 [Compound I-284]
IC50 [1]: 100 to 1000 nM

Structure (SMILES): Cc1nc(C)c(-c2csc(NC(=O)C3CN(c4ccc(-c5ccccc5)nn4)C3)n2)s1 [Compound I-285]
IC50 [1]: 100 to 1000 nM

Structure (SMILES): CC(=O)N1C[C@H](c2ccccc2)C[C@H]1C(=O)Nc1nc(-c2sc(C)nc2C)cs1 [Compound I-289]
IC50 [1]: 100 to 1000 nM

Structure (SMILES): Cc1nc(C)c(-c2csc(NC(=O)[C@@H]3C[C@@H](c4ccccc4)CN3C(=O)C(C)C)n2)s1 [Compound I-291]
IC50 [1]: 100 to 1000 nM

Structure (SMILES): Cc1nc(C)c(-c2csc(NC(=O)[C@@H]3C[C@@H](c4ccccc4)CN3C=[N+](C)C)n2)s1 [Compound I-294]
IC50 [1]: 1000 to 8000 nM

Structure (SMILES): Cc1nc(C(C)O)sc1-c1csc(NC(=O)C2CCN(c3ccccc3)C2)n1 (stereo not shown) [Compound I-295]
IC50 [1]: 100 to 1000 nM

Structure (SMILES): Cc1nc(C)c(-c2csc(NC(=O)c3cccc(-c4ccccc4)n3)n2)s1 [Compound I-296]
IC50 [1]: 1000 to 8000 nM

Structure (SMILES): CCNC(=O)N1C[C@H](c2ccccc2)C[C@H]1C(=O)Nc1nc(-c2sc(C)nc2C)cs1 [Compound I-300]
IC50 [1]: 1000 to 8000 nM

Now from value to compound:

IC50 [1]: < 100 nM
Structure (SMILES): Cc1nc(C)c(-c2csc(NC(=O)C3CN(S(=O)(=O)c4ccc(C(F)(F)F)cc4)C3)n2)s1 [Compound I-264]

IC50 [1]: 100 to 1000 nM
Structure (SMILES): Cc1nc(C)c(-c2csc(NC(=O)[C@H](Cc3ccccc3)NC(=O)OC(C)(C)C)n2)s1 [Compound I-265]

IC50 [1]: 100 to 1000 nM
Structure (SMILES): Cc1nc(C)c(-c2csc(NC(=O)[C@H](CCc3ccccc3)NC(=O)OC(C)(C)C)n2)s1 [Compound I-266]

IC50 [1]: < 100 nM
Structure (SMILES): Cc1nc(C)c(-c2csc(NC(=O)[C@@H]3C[C@H](c4ccccc4)CN3C(=O)C(F)(F)F)n2)s1 [Compound I-271]

IC50 [1]: < 100 nM
Structure (SMILES): Cc1nc(C)c(-c2csc(NC(=O)[C@@H]3C[C@@H](N4CCC(c5ccccc5)CC4)CN3C(=O)OC(C)(C)C)n2)s1 [Compound I-272]

IC50 [1]: < 100 nM
Structure (SMILES): Cc1nc(CO)sc1-c1csc(NC(=O)C2Oc3cc(Cl)c(Cl)cc3O2)n1 [Compound I-273]

IC50 [1]: < 100 nM
Structure (SMILES): Cc1nc(C)c(-c2csc(NC(=O)[C@@H]3C[C@@H](N4CCC(c5ccccc5)CC4)CN3C(=O)C(F)(F)F)n2)s1 [Compound I-276]

IC50 [1]: < 100 nM
Structure (SMILES): Cc1nc(CO)sc1-c1csc(NC(=O)[C@@H]2C[C@@H](c3ccccc3)CN2C(=O)OC(C)(C)C)n1 [Compound I-277]

IC50 [1]: < 100 nM
Structure (SMILES): Cc1nc(C)c(-c2csc(NC(=O)C3CN(c4ncc(C(F)(F)F)cn4)C3)n2)s1 [Compound I-278]

IC50 [1]: < 100 nM
Structure (SMILES): Cc1nc(C)c(-c2csc(NC(=O)C3CN(c4ccccc4C(F)(F)F)C3)n2)s1 [Compound I-280]

IC50 [1]: < 100 nM
Structure (SMILES): Cc1nc(C)c(-c2csc(NC(=O)C3CN(c4ccc(C(F)(F)F)nc4)C3)n2)s1 [Compound I-286]

IC50 [1]: < 100 nM
Structure (SMILES): COC(=O)N1C[C@H](c2ccccc2)C[C@H]1C(=O)Nc1nc(-c2sc(C)nc2C)cs1 [Compound I-288]

IC50 [1]: < 100 nM
Structure (SMILES): Cc1nc(CO)sc1-c1csc(NC(=O)[C@@H]2C[C@@H](c3ccccc3)CN2C(=O)C(F)(F)F)n1 [Compound I-290]

IC50 [1]: < 100 nM
Structure (SMILES): Cc1nc(C)c(-c2csc(NC(=O)[C@@H]3C[C@@H](c4ccccc4)CN3CC(F)(F)F)n2)s1 [Compound I-292]

IC50 [1]: < 100 nM
Structure (SMILES): Cc1nc(C)c(-c2csc(NC(=O)[C@@H]3C[C@H](Oc4ccc(Cl)cc4)CN3C(=O)OC(C)(C)C)n2)s1 [Compound I-293]

IC50 (1 μmol/L 4α-PDD, Fluo4-AM, read-out: TRPV4 inhibitory activity (IC50 value)): 22 nM
IC50 [1]: < 100 nM
Structure (SMILES): Cc1nc(CO)sc1-c1csc(NC(=O)C2CN(c3ccc(C(F)(F)F)cn3)C2)n1 [Compound I-297]

IC50 [1]: < 100 nM
Structure (SMILES): Cc1nc(C)c(-c2csc(NC(=O)[C@@H]3C[C@@H](c4ccccc4)CN3S(=O)(=O)C(C)C)n2)s1 [Compound I-301]

IC50 [1]: < 100 nM
Structure (SMILES): O=C(Nc1nc(-c2sc(CO)nc2CO)cs1)C1CN(c2ccc(C(F)(F)F)cc2)C1 [Compound I-302]
